Source: patent US12544370B2, “Methods for cancer therapy” (ASCENTAGE PHARMA (SUZHOU) CO., LTD., priority 2018, dated 2026)

How the values were obtained:
[1] = Phase I study, pharmacokinetics (Example 1); format: in vivo, human
[2] = tested on: patients with chronic phase (CP/CML-CP) or accelerated phase (AP/CML-AP) CML resistant to or intolerant of ≥2 prior TKIs or with BCR-ABL T315I; experiment: Phase 1 trial in resistant CML, further safety (Example 2)
Source text: (§1) The eligible patients received continuous treatment until disease progression or unacceptable toxicity, consent withdrawal, or death. The primary efficacy endpoints were major cytogenetic response (MCyR) for CP and complete hematological response (CHR) for AP. MCyR includes partial cytogenetic response (PCyR) and complete cytogenetic response (CCyR). Blood samples were collected at various time points on Day 1-2 and Day 27-28 during cycle 1 for PK analyses.

[3] = tested on: patients with chronic phase (CP/CML-CP) or accelerated phase (AP/CML-AP) CML resistant to or intolerant of ≥2 prior TKIs or with BCR-ABL T315I; experiment: Phase 1 trial in resistant CML, further efficacy (Example 2); format: in vivo, human
Source text: as §1

[4] = target: Ba/F3 containing BCR-ABL Wild Type (Homo sapiens, UniProt P00519); settings: read-out: Antiproliferation Effect (IC50)
[5] = target: Ba/F3 containing BCR-ABL mutation H396R (Homo sapiens, UniProt P00519, H396R, cells depend on it); settings: read-out: Antiproliferation Effect (IC50)
Source text: (§2) Ba/F3 cells stably expressing BCR-ABL (F359V, H396R, E255K, Y253H, T315I, F317L) mutations were provided by the Institute of Life and Health, Guangzhou Academy of Sciences.
(§3) 1. The mutated Ba/F3 cell line stably expressing BCR-ABL (E255V, T315M, Y253H/E255V, Y253H/T315I, Y253H/F359V, T315I/F317L, F317L/F359V) mutation was constructed by electro-transformation method, the Ba/F3 cell line stably expressing the BCR-ABL (E255V/T315I, T315I/F359V) mutation was constructed by lentivirus infection method.
(§4) 2. Effect of drugs on the proliferation of BaF3 cells stably transfected with BCR-ABL single mutation or complex mutation by WST assay
(§5) The dilution was used as a cell blank control (excluding the sample to be tested, which was added to the cells). In addition, a negative control (excluding the sample to be tested and cells) was prepared. In addition to the negative control wells, 100 μl of complete medium cell suspension was added to each well. The dilution was added to the negative control wells at 100 μl/well. 3 repeated wells were set in the experiment. […] 20 μl of CCK-8 detection solution (Shanghai Life iLab Biotech Co., LTD, Cat #D3100L4057) was added to each well, incubating at 37° C. for 2 hours in a CO2 incubator. The OD value was measured at A450 nm by a microplate reader.
(§6) The percentage of cell viability was calculated using the following formula: (O.D. test well-O.D. negative control well)/(O.D. cell control well-O.D. negative control well)×100
(§7) The IC50 was calculated using a non-linear regression data analysis method of Graphpad Prism 6.0 software ([…]).

[6] = target: Ba/F3 containing BCR-ABL mutation Y253H/E255V (Homo sapiens, UniProt P00519, Y253H/E255V, cells depend on it); settings: read-out: Antiproliferation Effect (IC50)
Source text: as §2, §3, §4, §5, §6, §7

[7] = tested on: tyrosine phosphorylation of CRKL in peripheral blood mononuclear cell (PBMCs); experiment: Phase I study, pharmacodynamics: CRKL phosphorylation in PBMCs (Example 1); format: in vivo, human; settings: doses 12 mg-60 mg, schedule and dose-dependent
[8] = Example 2, Table 3, treatment related AE, treated population 101
[9] = Table 4, AP-CML, With T315I mut., 11 evaluable
[10] = Table 4, AP-CML, With T315I mut., 11 evaluated
[11] = Table 4, AP-CML, Without T315I mut., 3 evaluable
[12] = Table 4, AP-CML, Without T315I mut., 3 evaluated
[13] = Table 4, CP-CML, With T315I mut., 48 evaluable
[14] = Table 4, CP-CML, With T315I mut., 51 evaluated
[15] = Table 4, CP-CML, Without T315I mut., 33 evaluable
[16] = Table 4, CP-CML, Without T315I mut., 35 evaluated

## Cc1ccc(C(=O)Nc2ccc(CN3CCN(C)CC3)c(C(F)(F)F)c2)cc1C#Cc1cnc2[nH]ncc2c1 [compound of formula (I-A), 3-(2-(1H-pyrazolo[3,4-b]pyridin-5-yl)ethynyl)-4-methyl-N-(4-((4-methylpiperazin-1-yl)methyl)-3-(trifluoromethyl)phenyl)-benzamide]
[1]; oral, 1 mg to 60 mg
  time at which peak concentration was reached: 2 to 8 h
[1]; single or multiple oral dose 1 to 60 mg
  dose proportionality of Cmax and AUC0-t: approximately dose proportional increase
[2]; Example 2
  death / CTCAE grade 5 events on study: No death and no CTCAE grade 5 events
[2]; [8]
  ALT elevation, Any Grade: 34 (33.7%) n(%)
  ALT elevation, Grade 3, 4: 2 (2.0%) n(%)
  ALT elevation, SAE: 0 n(%)
  AST elevation, Any Grade: 37 (36.6%) n(%)
  AST elevation, Grade 3, 4: 3 (3.0%) n(%)
  AST elevation, SAE: 0 n(%)
  Anemia, Any Grade: 25 (24.8%) n(%)
  Anemia, Grade 3, 4: 12 (11.9%) n(%)
  Anemia, SAE: 2 (2.0%) n(%)
  Bilirubin elevation, Any Grade: 34 (33.7%) n(%)
  Bilirubin elevation, Grade 3, 4: 1 (1.0%) n(%)
  Bilirubin elevation, SAE: 0 n(%)
  CPK elevation, Any Grade: 20 (19.8%) n(%)
  CPK elevation, Grade 3, 4: 2 (2.0%) n(%)
  CPK elevation, SAE: 0 n(%)
  GGT elevation, Any Grade: 24 (23.8%) n(%)
  GGT elevation, Grade 3, 4: 0 n(%)
  GGT elevation, SAE: 0 n(%)
  Hyperglycaemia, Grade 3, 4: 0 n(%)
  Hyperglycaemia, SAE: 0 n(%)
  Hypertriglyceridaemia, Any grade: 55 (54.5%) n(%)
  Hypertriglyceridaemia, Grade 3, 4: 8 (7.9%) n(%)
  Hypertriglyceridaemia, SAE: 0 n(%)
  Hypocalcaemia, Any grade: 34 (33.7%) n(%)
  Hypocalcaemia, Grade 3, 4: 0 n(%)
  Hypocalcaemia, SAE: 0 n(%)
  Hypokalaemia, Any Grade: 20 (19.8%) n(%)
  Hypokalaemia, Grade 3, 4: 0 n(%)
  Hypokalaemia, SAE: 0 n(%)
  Hyponatraemia, Any Grade: 23 (22.8%) n(%)
  Hyponatraemia, Grade 3, 4: 0 n(%)
  Hyponatraemia, SAE: 0 n(%)
  Myalgia, Grade 3, 4: 0 n(%)
  Myalgia, SAE: 0 n(%)
  Proteinuria, Any grade: 35 (34.7%) n(%)
  Proteinuria, Grade 3, 4: 5 (5.0%) n(%)
  Proteinuria, SAE: 0 n(%)
  Pyrexia, Any Grade: 18 (17.8%) n(%)
  Pyrexia, Grade 3, 4: 7 (6.9%) n(%)
  Pyrexia, SAE: 1 (1.0%) n(%)
  Rash, Any Grade: 15 (14.9%) n(%)
  Rash, Grade 3, 4: 2 (2.0%) n(%)
  Rash, SAE: 0 n(%)
  Skin mass, Any Grade: 10 (9.9%) n(%)
  Skin mass, Grade 3, 4: 1 (1.0%) n(%)
  Skin mass, SAE: 0 n(%)
  Skin pigmentation, Any Grade: 79 (78.2%) n(%)
  Skin pigmentation, Grade 3, 4: 0 n(%)
  Skin pigmentation, SAE: 0 n(%)
  Thrombocytopenia, Any grade: 76 (75.2%) n(%)
  Thrombocytopenia, Grade 3, 4: 50 (49.5%) n(%)
  Thrombocytopenia, SAE: 6 (5.9%) n(%)
  leukopenia, Grade 3, 4: 20 (19.8%) n(%)
  leukopenia, SAE: 0 n(%)
[2]; Example 2, 60 mg cohort
  patients who experienced DLT: Two out of 3
[2]; Example 2, 101 patients
  grade ¾ TRAE thrombocytopenia: 49.5%
  tolerability: well-tolerated in all dose cohorts with an exception of 60 mg cohort
[2]; Example 2, QOD
  MTD: 50 mg
[2]; Example 2, all patients
  patients who experienced ≥1 treatment related adverse events (TRAEs): 101 (100%) n (%)
[3]; AP patients (FIG. 7B)
  progression free survival (PFS) rate at 18-month: 61%
[3]; CP patients (FIG. 7B)
  progression free survival (PFS) rate at 18-month: 94%
[3]; Example 2
  anti-leukemic activity by dose: potent anti-leukemic activities at doses ≥12 mg QOD
[3]; Example 2, 68 evaluable patients with non-CHR at baseline (CP+AP)
  CHR achieved: 63 (92.6%) n (%)
[3]; Table 4, AP-CML, All Patients, 14 evaluated
  Complete molecular response, percent: (14.3%)
[3]; Table 4, AP-CML, With T315I mut., 10 evaluable
  Complete hematological response, percent: (80.0%)
[3]; [9]
  Complete cytogenetic response, percent: (45.5%)
  Major cytogenetic response, percent: (54.5%)
[3]; [10]
  Complete molecular response, percent: (18.2%)
  Major/Complete molecular response, percent: (45.5%)
[3]; [11]
  Complete cytogenetic response: 0 n(%)
  Complete hematological response: 3 (100.0%) n(%)
  Major cytogenetic response: 0 n(%)
[3]; [12]
  Complete molecular response: 0 n(%)
  Major/Complete molecular response: 0 n(%)
[3]; Table 4, CP-CML, All Patients, 86 evaluated
  Complete molecular response, percent: (20.9%)
[3]; Table 4, CP-CML, With T315I mut., 33 evaluable
  Complete hematological response, percent: (97.0%)
[3]; [13]
  Complete cytogenetic response, percent: (77.1%)
  Major cytogenetic response, percent: (81.3%)
[3]; [14]
  Complete molecular response, percent: (29.4%)
  Major/Complete molecular response, percent: (52.9%)
[3]; Table 4, CP-CML, Without T315I mut., 22 evaluable
  Complete hematological response, percent: (90.9%)
[3]; [15]
  Complete cytogenetic response, percent: (36.4%)
  Major cytogenetic response, percent: (51.5%)
[3]; [16]
  Complete molecular response, percent: (8.6%)
  Major/Complete molecular response, percent: (14.3%)
[4]
  GI50: 0.006 ± 0.003 µM
[5]
  GI50: 0.274 ± 0.082 µM
[6]
  GI50: 0.122 µM
[7]
  reduction of CRKL phosphorylation: ≥ 50%
